pIC50, pKi: −log10 of the molar value. One block for each compound: values may come before it.
Assays:
Pneumocystis carinii [1] = test: Minimal effective concentration inhibiting growth of Pneumocystis carinii was reported.; type: functional; details: read-out: MEC
Dihydrofolate reductase [2] = target: T1, Dihydrofolate reductase (Pneumocystis carinii, UniProt P16184)
T1 sequence (P16184 whole entry): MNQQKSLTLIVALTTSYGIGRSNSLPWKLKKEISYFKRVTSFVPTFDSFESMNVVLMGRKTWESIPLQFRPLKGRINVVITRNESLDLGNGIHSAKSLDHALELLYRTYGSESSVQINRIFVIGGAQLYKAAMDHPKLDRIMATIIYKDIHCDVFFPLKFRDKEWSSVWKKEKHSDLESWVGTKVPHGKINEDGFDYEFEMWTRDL
Description: Inhibitory activity was determined against dihydrofolate reductase in Pneumocystis carinii.

Rattus norvegicus [3] = test: Evaluated for effectiveness at 10 mg/kg reported as relative to pentamidine in rat; type: functional
Rattus norvegicus [4] = species on record: Rattus norvegicus; test: Toxicity was reported in rat.; type: organism-based; details: in vivo
Pneumocystis carinii [5] = test: Pneumocystis carinii cysts per gram of lung tissue was determined in Pneumocystis carinii expressed as perscent of saline treated- control; type: functional; set-up: concentration or dose not given beside the values
Rattus norvegicus [6] = species on record: Rattus norvegicus; test: Toxicity was reported in rat; Toxic; type: organism-based; details: in vivo
[7] = Ratio for IC50 of mammalian DHFR to IC50 of Pneumocystis carinii DHFR
Dihydrofolate reductase [8] = target: T1, Dihydrofolate reductase; remark: listed apart in the source
Description: Binding affinity was reported with purified recombinant Pneumocystis carinii Dihydrofolate reductase

Dihydrofolate reductase [9] = target: T1, Dihydrofolate reductase; remark: listed apart in the source
Description: Inhibitory activity against dihydrofolate reductase in Pneumocystis carinii at 37 centigrade.

Dihydrofolate reductase [10] = target: T2, Dihydrofolate reductase (Rattus norvegicus, UniProt Q920D2); test: Inhibitory activity against dihydrofolate reductase in rat liver.
T2 sequence (Q920D2 whole entry): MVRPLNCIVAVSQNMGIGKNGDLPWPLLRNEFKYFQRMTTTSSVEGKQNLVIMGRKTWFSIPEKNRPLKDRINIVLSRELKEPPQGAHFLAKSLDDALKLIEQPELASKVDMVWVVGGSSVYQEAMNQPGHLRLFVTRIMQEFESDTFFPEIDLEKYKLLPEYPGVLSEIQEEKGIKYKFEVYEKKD

Dihydrofolate reductase [11] = target: T1, Dihydrofolate reductase; remark: listed apart in the source
Pneumocystis carinii [12] = test: Toxicity in Pneumocystis carinii Strong activity; type: organism-based; details: in vivo
Rattus norvegicus [13] = species on record: Rattus norvegicus; test: toxicity was reported in rat.; type: organism-based; details: in vivo
Rattus norvegicus [14] = species on record: Rattus norvegicus; test: Toxicity was reported in rat; Toxic,; type: organism-based; details: in vivo
Dihydrofolate reductase [15] = target: T2, Dihydrofolate reductase; test: Inhibitory activity against dihydrofolate reductase in rat.
[16] = Inhibitory activity of Pneumocystis carinii growth culture.

SMILES: COc1cc(C)c2c(Oc3cccc(C(F)(F)F)c3)c(OC)cc(NC(C)CCCN)c2n1 (stereo not drawn) [TAFENOQUINE]
minimal effective concentration (Pneumocystis carinii [1]): 0.2 µM

SMILES: COc1cc(NC(C)CCCN)c2ncccc2c1 (stereo not drawn) [PRIMAQUINE]
minimal effective concentration (Pneumocystis carinii [1]): 0.02 µM

pIC50 (Dihydrofolate reductase [2]): 5.82
SMILES: Nc1ccc(S(=O)(=O)c2ccc(N)cc2)cc1 [DAPSONE]

SMILES: COc1cc(C(=N)N)ccc1OCOc1ccc(C(=N)N)cc1OC
Effectiveness (Rattus norvegicus [3]): 1.8 | Toxicity (Rattus norvegicus [4]): 0

SMILES: CCCCCCOc1c(OC)cc(NC(C)CCCN)c2nccc(C)c12 (stereo not drawn) [WR-242511]
minimal effective concentration (Pneumocystis carinii [1]): 0.2 µM

SMILES: N=C(N)c1ccc2[nH]c(/C=C/c3nc4cc(C(=N)N)ccc4[nH]3)nc2c1
Lung cyst count, % of saline control (Pneumocystis carinii [5]): 3%

SMILES: COc1cc(NCCCCC(C)N)c2nccc(C)c2c1 (stereo not drawn)
minimal effective concentration (Pneumocystis carinii [1]): 0.2 µM

SMILES: N=C(N)c1ccc(OCCCOc2ccc(C(=N)N)cc2)cc1 [PROPAMIDINE]
Effectiveness (Rattus norvegicus [3]): 1.2 | Toxicity (Rattus norvegicus [6]): Toxic

SMILES: COc1cc(NC(C)CCCN)c2nccc(C)c2c1Oc1cccc(C(F)(F)F)c1 (stereo not drawn)
minimal effective concentration (Pneumocystis carinii [1]): 0.2 µM

Selectivity [7]: 44 | pKi (Dihydrofolate reductase [8]): 8.47 | pIC50 (Dihydrofolate reductase [9]): 5.52
SMILES: CCOc1cc(Cc2cnc(N)nc2N)cc(OCC)c1-n1cccc1 [EPIROPRIM]

pIC50 (Dihydrofolate reductase [10]): 6.96 | pKi (Dihydrofolate reductase [8]): 7.63 | pIC50 (Dihydrofolate reductase [9]): 6.35
SMILES: CC1(C)N=C(N)N=C(N)N1c1ccc(Cl)cc1 [CYCLOGUANIL]

SMILES: N=C(N)c1cc(N)cc(OCCCCOc2cc(C(=N)N)ccc2N)c1
Effectiveness (Rattus norvegicus [3]): 1.1 | Toxicity (Rattus norvegicus [4]): 0

SMILES: N=C(N)c1cccc(OCOc2cccc(C(=N)N)c2)c1
Effectiveness (Rattus norvegicus [3]): 0.7 | Toxicity (Rattus norvegicus [4]): 0

pIC50 (Dihydrofolate reductase [2]): 8.22
SMILES: Nc1nc(N)c2c(ncc3c2ccn3Cc2ccc(Cl)cc2Cl)n1

SMILES: Cc1cc(NS(=O)(=O)c2ccc(N)cc2)no1 [SULFAMETHOXAZOLE]
pIC50 (Dihydrofolate reductase [11]): 7.00

pIC50 (Dihydrofolate reductase [2]): 7.46
SMILES: CN(Cc1cnc2nc(N)nc(N)c2n1)c1ccc(C(=O)NC(CCC(=O)NC(CCC(=O)NC(CCC(=O)NC(CCC(=O)O)C(=O)O)C(=O)O)C(=O)O)C(=O)O)cc1 (stereo not drawn)

SMILES: CCc1nc(N)nc(N)c1-c1ccc(Cl)c([N+]#N)c1
pIC50 (Dihydrofolate reductase [2]): 6.72

pIC50 (Dihydrofolate reductase [2]): 5.02
SMILES: Nc1cc(N)c2nc(CSc3ccccc3)cnc2c1

pIC50 (Dihydrofolate reductase [2]): 5.51
SMILES: COc1cc(Cn2ccc3c4c(N)nc(N)nc4nc(O)c32)cc(OC)c1OC

SMILES: N=C(N)c1ccc2[nH]c(CCCCc3nc4cc(C(=N)N)ccc4[nH]3)nc2c1
Toxicity (Pneumocystis carinii [12]): Strong activity | Lung cyst count, % of saline control (Pneumocystis carinii [5]): 0.3%

SMILES: N=C(N)c1ccc(OCCCCOc2ccc(C(=N)N)cc2)cc1
Effectiveness (Rattus norvegicus [3]): 2.2 | Toxicity (Rattus norvegicus [13]): 0

SMILES: COc1cc(NC(C)CCCN)c2nc(C)ccc2c1 (stereo not drawn)
minimal effective concentration (Pneumocystis carinii [1]): 0.03 µM

SMILES: N=C(N)c1ccc(OCCCCCOc2ccc(C(=N)N)cc2)cc1 [PENTAMIDINE]
Effectiveness (Rattus norvegicus [3]): 1 | Toxicity (Rattus norvegicus [14]): Toxic

pIC50 (Dihydrofolate reductase [9]): < 4.20
SMILES: COCCOc1c(OC)cc(Cc2cnc(N)nc2N)cc1OC [TETROXOPRIM]

SMILES: N=C(N)c1cccc(OCCCCOc2cccc(C(=N)N)c2)c1
Effectiveness (Rattus norvegicus [3]): 0.6 | Toxicity (Rattus norvegicus [4]): 0

SMILES: COc1ccc(C2=NCCN2)cc1OCCCCOc1cccc(C2=NCCN2)c1
Effectiveness (Rattus norvegicus [3]): 1.7 | Toxicity (Rattus norvegicus [14]): Toxic

SMILES: COc1cc(C2=NCCN2)ccc1OCCCOc1ccc(C2=NCCN2)cc1
Effectiveness (Rattus norvegicus [3]): 1.3 | Toxicity (Rattus norvegicus [4]): 0

SMILES: CCN(CC)CCCCCCNc1cc(OC)cc2c(C)ccnc12 [SITAMAQUINE]
minimal effective concentration (Pneumocystis carinii [1]): 2.3 µM

SMILES: N=C(N)c1ccc2[nH]c(CCc3nc4cc(C(=N)N)ccc4[nH]3)nc2c1
Lung cyst count, % of saline control (Pneumocystis carinii [5]): 1%

SMILES: COc1cc(NC(C)CCCN)c2nccc(C)c2c1 (stereo not drawn)
minimal effective concentration (Pneumocystis carinii [1]): 0.02 µM

pIC50 (Dihydrofolate reductase [2]): 6.72
SMILES: CN(Cc1cnc2cc(N)cc(N)c2n1)c1ccc(C(=O)NC(CCC(=O)O)C(=O)O)c2ccccc12 (stereo not drawn)

pIC50 (Dihydrofolate reductase [2]): 4.97
SMILES: CCc1nc(N)nc(N)c1-c1ccc(Cl)c(NCN(C)C)c1

pIC50 (Dihydrofolate reductase [15]): 4.72 | pIC50 (Dihydrofolate reductase [2]): 5.55 | pIC50 [16]: 5.26
SMILES: CCN=NNc1cc(-c2c(N)nc(N)nc2CC)ccc1Cl

SMILES: COc1cc(OCCCCOc2cc(C(=N)N)ccc2OC)cc(C(=N)N)c1
Effectiveness (Rattus norvegicus [3]): 1.2 | Toxicity (Rattus norvegicus [4]): 0

pIC50 (Dihydrofolate reductase [2]): 3.92
SMILES: Nc1nc(N)c2cc(Sc3cccc(C(F)(F)F)c3)sc2n1

SMILES: c1cc(C2=NCCN2)ccc1OCOc1ccc(C2=NCCN2)cc1
Effectiveness (Rattus norvegicus [3]): 2.4 | Toxicity (Rattus norvegicus [4]): 0

pIC50 (Dihydrofolate reductase [2]): 5.92
SMILES: COc1ccc(OC)c(CCc2sc3nc(N)nc(N)c3c2C)c1

SMILES: c1cc2[nH]c(CCCc3nc4cc(C5=NCCN5)ccc4[nH]3)nc2cc1C1=NCCN1
Lung cyst count, % of saline control (Pneumocystis carinii [5]): 4%

SMILES: c1cc(OCCOc2cccc(C3=NCCN3)c2)cc(C2=NCCN2)c1
Effectiveness (Rattus norvegicus [3]): 0.6 | Toxicity (Rattus norvegicus [4]): Toxic

SMILES: N=C(N)c1ccc(OCOc2ccc(C(=N)N)cc2N)c(N)c1
Effectiveness (Rattus norvegicus [3]): 1.1 | Toxicity (Rattus norvegicus [4]): 0

SMILES: c1cc2[nH]c(CCCCc3nc4cc(C5=NCCN5)ccc4[nH]3)nc2cc1C1=NCCN1
Toxicity (Pneumocystis carinii [12]): Strong activity | Lung cyst count, % of saline control (Pneumocystis carinii [5]): 0.1%

SMILES: N=C(N)c1ccc2[nH]c(CCCc3nc4cc(C(=N)N)ccc4[nH]3)nc2c1
Lung cyst count, % of saline control (Pneumocystis carinii [5]): 32%

Source: ChEMBL document CHEMBL1128198, “New drug developments for opportunistic infections in immunosuppressed patients: Pneumocystis carinii” (J Med Chem, 1995)
